Measurements published in patent publication US20070129439A1, “COMPOSITIONS CONTAINING SUBSTITUTED QUINOLINES AND SUBSTITUTED DIPHENYL SULFONES AND METHODS OF USE” (priority 2003, published 2007).

Tested on: neurons
Assay: % neuron loss for test agents in a rat model with Alzheimer's disease (FIG. 1)
Type: in vivo
Settings: rat model with AD
Description: FIG. 1 is a plot of % neuron loss for several test agents in a rat model with Alzheimer's disease (AD).

| Structure (SMILES) | % neuron loss (killing effect) (dapsone alone at 2 mg/kg) | % neuron loss (killing effect) (hydroxychloroquine alone at 6.5 mg/kg) |
| --- | --- | --- |
| Nc1ccc(S(=O)(=O)c2ccc(N)cc2)cc1 [dapsone, 4,4′-diaminodiphenylsulfone] | suppression of the in vitro killing effect | – |
| CCN(CCO)CCCC(C)Nc1ccnc2cc(Cl)ccc12 (centres unmarked) [hydroxychloroquine] | – | suppression of the in vitro killing effect |
